For data set [1] the following is noted: irradiation with light having 350 nm; cited from earlier work.
In data set [2] the test system is ODN(T) (5′-ACGGGTGCA-3′), thymine. The data set is described as follows: Photocrosslinking reaction targeted for thymine, HPLC analysis after light irradiation. The following applies: for conversion rate: irradiation for one hour. The protocol:
(§1) To an equal amount mixture (5 μM in 50 mM Na-Cacodylate buffer (pH 7.4), 100 mM NaCl) of the oligo DNA containing pc-D [hereinafter referred to as ODN (Y·pc-D), in which Y is A (adenine) or G (guanine)] and a complementary oligo DNA [hereinafter referred to as ODN(Z), in which Z is T (thymine) or C (cytosine)] was added deoxyuridine (25 μM) as an internal standard, and irradiated with light at 4° C. (400 nm, […]). The solution was analyzed by HPLC (eluent: acetonitrile/50 mM of ammonium formate; 1-20% of acetonitrile/10 min; a flow rate: 0.2 mL/min) to evaluate photoreactivity.
FIG. 3a is an explanatory diagram showing the flow of the operations. In the ODN (A-pc-D)(5′-TGCAXCCGT-3′)(SEQ ID NO: 1) in which the target of photocrosslinking is thymine (T). the nucleoside analog (pc-D) according to the present invention is introduced as an improved photoreactive element at a position of X in the sequence.
Charts arranged in the vertical axis direction correspond to light irradiation times (0 sec, 1 sec, 5 sec. 10 sec, and 30 sec), and the horizontal axis indicates a retention time (minutes). The peaks of ODN (A⋅pc-D) and ODN (T), which were present before light irradiation (0 sec), were reduced by the light irradiation, and at the same time, a peak of a photodimer (ODN (pc-D/T)) with ODN (A⋅pc-D) and ODN (T) crosslinked appeared. As the light irradiation time increased, the peak area of(ODN (pc-D/T)) increased, confirming that the photocrosslinking reaction was progressing. FIG. 3c is a graph showing a change in a crosslinking rate as a function of light irradiation time. In FIG. 3c, the horizontal axis represents a light irradiation time (seconds), and the vertical axis represents a conversion rate (%). The conversion rate, i.e., a rate of change from a monomer to a dimer, was defined as a conversion rate of 100% for a case of being completely changed to the dimer.
The respective conversion rates were 86% at 450 nm, 70% at 500 nm, and 38% at 550 nm.
The photocrosslinking reaction was carried out by the same procedure as that of ODN (A-pc-D), using a pc-S-containing oligo DNA in which T (thymine) was a target for the photocrosslinking (5′-TGCAXCCGT-3′: hereinafter referred to as ODN (A-pc-S)) (SEQ ID NO: 5), and ODN (T) which was a complementary oligo DNA (FIG. 6a).
Charts arranged in the vertical axis direction correspond to light irradiation times (0 seconds, 60 seconds), respectively, and the horizontal axis indicates a retention time (minutes).

Data set [3] has as its system ODN (C) (5′-ACGGGCGCA-3′), cytosine. Kind of data set: Photocrosslinking reaction targeted for cytosine, HPLC analysis after light irradiation. The conditions noted are these: 400 nm, 30 seconds. As to the method: as §1
The photocrosslinking reaction was carried out by the same procedure as that of ODN (A⋅pc-D), using a pc-D-containing oligo DNA in which C (cytosine) was a target for the photocrosslinking (5′-TGCGXCCGT-3′; hereinafter referred to as ODN (G-pc-D)) (SEQ ID NO: 3) and a complementary oligo DNA (5′-ACGGGCGCA-3′: hereinafter referred to as ODN (C))(FIG. 4a)(SEQ ID NO: 4). As a result of irradiation with light having 400 nm for 30 seconds, the conversion rate by photocrosslinking was 71% (FIG. 4b).

With `O=c1ccc2cc3ccoc3cc2o1` [psoralen], the “time required for photoreaction” value in data set [1] is reported as “several hours”.
With “ODN (A·pc-D): Oligo DNA 5′-TGCAXCCGT-3′, in which X is the nucleic acid photoreactive element (pc-D) (DNA TGCANCCGT; photoreactive element pc-D, chemistry not fully specified)”, in data set [2] (400 nm, 10 seconds of irradiation, 4° C., 5 μM, pH 7.4), the “conversion rate (monomer to photodimer)” value is given as 94%. In addition, the crosslinking in data set [2] (400 nm, after one hour, 4° C.) is roughly 100%. For the same molecule, the conversion rate in data set [2] (450 nm) came to 86%; in data set [2] (500 nm) it was 70%; in data set [2] (550 nm) it was 38%.
Take “ODN (A·pc-S): Oligo DNA 5′-TGCAXCCGT-3′, in which X is the nucleic acid photoreactive element (pc-S) (DNA TGCANCCGT; photoreactive element pc-S, chemistry not fully specified)”: the “photodimer formation (HPLC)” value in data set [2] (400 nm, 60 seconds) is given as “a peak of the photodimer (ODN (pc-S/T) appeared”.
As to “ODN (G-pc-D): Oligo DNA 5′-TGCGXCCGT-3′, in which X is the nucleic acid photoreactive element (pc-D) (DNA TGCGNCCGT; photoreactive element pc-D, chemistry not fully specified)”, the “conversion rate by photocrosslinking” value in data set [3] is listed as 71%.

Values taken from US11078211B2, “Photoresponsive nucleotide analog capable of photocrosslinking in visible light region” (JAPAN ADVANCED INSTITUTE OF SCIENCE AND TECHNOLOGY, priority 2017, dated 2021).
